Earlier results in US12036329B2, “Mucoadhesive dispersion nanoparticle system and method for production the same” (LEAD BIOTHERAPEUTICS LTD, priority 2018, dated 2024).

Test system: alpha-adrenergic receptor
Settings: generally accepted

In the case of `Cc1cc(C(C)(C)C)cc(C)c1CC1=NCCN1` [xylometazoline], the Duration of effect is listed as 5 to 6 h.
